Data reported in publication PMC4913735, “Non‐glycosidic compounds can stimulate both human and mouse iNKT cells” (European Journal of Immunology, 2016).

Target: human iNKT‐cell TCR (Homo sapiens, UniProt A0A0B4J240+P15813)
Assay: SPR (BIAcore) binding of soluble human iNKT‐cell TCR to hCD1d/lipid complexes
Experimental: Two analogs of ThrCer, ThrCer 6, and ThrCer 7 were synthesized. […] We first carried out measurements to assess the binding affinity of these ThrCer analogs to human iNKT‐cell TCR (Fig. 1B). Recombinant human CD1d (hCD1d) molecules were refolded in vitro with ThrCer 6 and ThrCer 7 separately and coupled to BIAcore chips, over which refolded human iNKT‐cell TCR was injected at different concentrations 34. […] Importantly, these findings were consistent with data obtained using tetrameric human iNKT‐cell TCRs as a staining reagent to identify lipid/CD1d complexes on the surface of C1R cells that had been transfected with hCD1d cDNA (hCD1d C1R cells) and subsequently loaded with the different lipids 34 (Fig. 1C).
Soluble human invariant TCR was generated as previously described 34 where both the Vα24 and Vβ11 chains were individually overexpressed in Escherichia coli, purified from the inclusion bodies, then refolded, and purified to generate the TCR heterodimers, according to Boulter et al. 43. The murine TCR was generated according to Pellici et al. as a chimeric molecule (with variable murine regions and human constant regions) 44. The hybrid alpha chains and beta chains were individually expressed in E. coli and purified from the inclusion bodies, then refolded as above.
SPR experiments were performed with a BIAcore 3000 to measure the affinity and kinetics of iNKT‐cell TCR binding to human CD1d–ligand complexes. In brief, approximately 1000 RU of the biotinylated hCD1d–lipid complexes were immobilized onto streptavidin‐coated CM5 sensor chips (BIAcore). Aliquots of purified TCR with increasing concentrations were passed over immobilized hCD1d–lipid complex at a flow rate of 10 μL/min for the equilibrium‐binding experiments or 50 μL/min for the kinetics experiments. The dissociation constants, K d, were calculated by fitting the data from the equilibrium‐binding experiment to a non‐linear regression saturation binding model (GraphPad Prism 5.0), whereas the k off data were estimated from the kinetics experiments by fitting the data with the built‐in models of the BIAeval3.1 software (BIAcore).

human iNKT‐cell TCR, sequence (P01848 1-93): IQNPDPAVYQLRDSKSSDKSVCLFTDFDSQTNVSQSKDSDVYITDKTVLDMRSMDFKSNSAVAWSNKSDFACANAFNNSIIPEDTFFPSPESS
human iNKT‐cell TCR, sequence (P61769 21-119, further chain): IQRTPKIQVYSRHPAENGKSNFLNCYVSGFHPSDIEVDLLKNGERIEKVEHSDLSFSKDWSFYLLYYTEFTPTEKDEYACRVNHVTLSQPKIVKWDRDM
human iNKT‐cell TCR, sequence (A0A0B4J240 22-114): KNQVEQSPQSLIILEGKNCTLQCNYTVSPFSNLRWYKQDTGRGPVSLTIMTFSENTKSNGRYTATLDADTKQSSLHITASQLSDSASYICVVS
human iNKT‐cell TCR, sequence (P01850 1-129, further chain): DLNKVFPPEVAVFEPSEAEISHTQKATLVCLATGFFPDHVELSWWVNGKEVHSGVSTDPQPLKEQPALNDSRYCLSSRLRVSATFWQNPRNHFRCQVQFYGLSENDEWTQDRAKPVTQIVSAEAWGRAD
human iNKT‐cell TCR, sequence (P15813 20-301): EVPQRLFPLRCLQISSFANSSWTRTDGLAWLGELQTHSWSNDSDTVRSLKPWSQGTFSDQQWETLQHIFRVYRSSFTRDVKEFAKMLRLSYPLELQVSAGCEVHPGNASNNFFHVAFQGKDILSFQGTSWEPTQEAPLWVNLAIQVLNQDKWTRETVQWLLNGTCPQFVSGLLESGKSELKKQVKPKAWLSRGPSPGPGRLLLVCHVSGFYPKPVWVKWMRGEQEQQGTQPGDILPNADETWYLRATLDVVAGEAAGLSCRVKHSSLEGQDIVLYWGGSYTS

Compound: CCCCCCCCCCCCCCCCCCCCCCCCCC(=O)N[C@@H](COC[C@H](O)[C@@H](O)CO)[C@H](O)[C@H](O)CCCCCCCCCCCCCC [ThrCer, threitolceramide, reference compound]
- Kd (SPR equilibrium binding, hCD1d refolded with lipid, read-out: K d, human iNKT‐cell TCR binding to hCD1d/lipid complex): 3.15 µM
- koff (SPR kinetics experiment, read-out: k off, human iNKT‐cell TCR from hCD1d/lipid complex): 0.114 s⁻¹
